According to ChEMBL document CHEMBL4831485, “Design, synthesis and biological evaluation of exiguamine A analogues as IDO1 inhibitors” (Eur J Med Chem, 2021):
One block for each compound: values may come before it.

How the values were obtained:
[1] = biological target: Indoleamine 2,3-dioxygenase 1 (Homo sapiens, UniProt P14902); test: Inhibition of human N-terminal His-tagged IDO1 expressed in Escherichia coli assessed as formation of N'-formyl-kynurenine using D-tryptophan as a substrate by methylene blue based assay
MCF7 = test: Cytotoxicity against human MCF7 cells assessed as reduction in cell viability measured after 72 hrs by MTT assay; assay type: cell-based; conditions: MCF7, 72 h
HGC-27 = test: Cytotoxicity against human HGC-27 cells assessed as reduction in cell viability measured after 72 hrs by MTT assay; assay type: cell-based; conditions: HGC-27, 72 h
[2] = biological target: Tryptophan 2,3-dioxygenase (Homo sapiens) (UniProt P48775); test: Inhibition of human N-terminal His-tagged TDO expressed in Escherichia coli assessed as formation of N'-formyl-kynurenine at 1 uM using D-tryptophan as a substrate by methylene blue based assay relative to control
U-87 MG = test: Cytotoxicity against human U87 cells assessed as reduction in cell viability measured after 72 hrs by MTT assay; assay type: cell-based, U-87MG ATCC
HepG2 = test: Cytotoxicity against human HepG2 cells assessed as reduction in cell viability measured after 72 hrs by MTT assay; assay type: cell-based; conditions: HepG2, 72 h
HCT-116 = test: Cytotoxicity against human HCT-116 cells assessed as reduction in cell viability measured after 72 hrs by MTT assay; assay type: cell-based; conditions: HCT-116, 72 h

Indoleamine 2,3-dioxygenase 1, sequence (P14902 whole entry): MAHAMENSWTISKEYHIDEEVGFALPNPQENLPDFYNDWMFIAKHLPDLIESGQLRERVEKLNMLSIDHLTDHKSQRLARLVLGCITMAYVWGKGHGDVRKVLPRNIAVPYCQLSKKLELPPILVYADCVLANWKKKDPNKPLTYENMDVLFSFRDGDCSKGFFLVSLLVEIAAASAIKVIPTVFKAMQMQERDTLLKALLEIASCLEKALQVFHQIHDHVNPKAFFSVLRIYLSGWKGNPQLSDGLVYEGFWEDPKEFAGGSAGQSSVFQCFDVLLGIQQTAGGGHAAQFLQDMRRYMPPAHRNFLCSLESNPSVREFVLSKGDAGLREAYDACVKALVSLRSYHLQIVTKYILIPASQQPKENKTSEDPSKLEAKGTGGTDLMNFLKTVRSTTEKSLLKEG
Tryptophan 2,3-dioxygenase (Homo sapiens), sequence (P48775 whole entry, looked up): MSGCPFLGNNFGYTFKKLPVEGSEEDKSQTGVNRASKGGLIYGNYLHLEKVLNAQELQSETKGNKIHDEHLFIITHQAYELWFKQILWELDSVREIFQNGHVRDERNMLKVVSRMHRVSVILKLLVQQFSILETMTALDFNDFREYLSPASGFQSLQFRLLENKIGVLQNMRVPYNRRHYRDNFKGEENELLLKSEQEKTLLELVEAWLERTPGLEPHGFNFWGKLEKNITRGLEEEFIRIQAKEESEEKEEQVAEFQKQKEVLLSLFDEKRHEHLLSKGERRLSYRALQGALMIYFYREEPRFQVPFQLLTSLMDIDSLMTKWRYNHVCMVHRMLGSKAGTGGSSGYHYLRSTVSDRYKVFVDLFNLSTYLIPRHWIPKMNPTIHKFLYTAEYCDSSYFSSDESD

IC50 [1]: 0.578 µM
Structure (SMILES): COc1ccc(C)c2c1CC1(C(=O)N(C)C(=O)N1C)C1=C2C(=O)c2[nH]cc(CCNC(=O)/C=C/c3ccccc3)c2C1=O (stereo not given)

IC50 [1]: 0.248 µM
Structure (SMILES): COc1ccc(C)c2c1CC1(C(=O)N(C)C(=O)N1C)C1=C2C(=O)c2[nH]cc(CCNCc3cccc(OC)c3OC)c2C1=O (stereo not given)

inhibition [2]: 0%
IC50 [1]: 0.21 µM
Structure (SMILES): COc1ccc(C)c2c1CC1(C(=O)N(C)C(=O)N1C)C1=C2C(=O)c2[nH]cc(CCNC(=O)c3ccccc3)c2C1=O (stereo not given)
IC50 (MCF7): 5.35 µM
IC50 (HGC-27): 4 µM
IC50 (U-87 MG): 2.74 µM
IC50 (HepG2): 3.53 µM
IC50 (HCT-116): 1.7 µM

IC50 [1]: 0.631 µM
Structure (SMILES): COc1ccc(C)c2c1CC1(C(=O)N(C)C(=O)N1C)C1=C2C(=O)c2[nH]cc(CCNC(=O)c3cc4ccccc4o3)c2C1=O (stereo not given)

IC50 [1]: > 42 µM
Structure (SMILES): COc1cc(/C=C/C(=O)NCCc2c[nH]c3c2C(=O)C2=C(C3=O)c3c(C)ccc(OC)c3CC23C(=O)N(C)C(=O)N3C)cc(OC)c1 (stereo not given)

IC50 [1]: 0.621 µM
Structure (SMILES): COc1ccc(C)c2c1CC1(C(=O)N(C)C(=O)N1C)C1=C2C(=O)c2[nH]cc(CCNCc3cc4ccccc4s3)c2C1=O (stereo not given)

IC50 [1]: 0.441 µM
Structure (SMILES): COc1ccc(C)c2c1CC1(C(=O)N(C)C(=O)N1C)C1=C2C(=O)c2[nH]cc(CCNC(=O)Cc3cccc(C(F)(F)F)c3)c2C1=O (stereo not given)

IC50 [1]: > 42 µM
Structure (SMILES): COc1ccc(C)c2c1CC1(C(=O)N(C)C(=O)N1C)C1=C2C(=O)c2[nH]cc(CCNC(=O)c3ccc(C(C)C)cc3)c2C1=O (stereo not given)

IC50 [1]: 0.252 µM
Structure (SMILES): COC(=O)c1cccc(CNCCc2c[nH]c3c2C(=O)C2=C(C3=O)c3c(C)ccc(OC)c3CC23C(=O)N(C)C(=O)N3C)c1 (stereo not given)

IC50 [1]: 0.467 µM
Structure (SMILES): COc1ccc(C)c2c1CC1(C(=O)N(C)C(=O)N1C)C1=C2C(=O)c2[nH]cc(CCNC(=O)OC(C)(C)C)c2C1=O (stereo not given)

IC50 [1]: 2.5 µM
Structure (SMILES): COc1ccc(C(=O)NCCc2c[nH]c3c2C(=O)C2=C(C3=O)c3c(C)ccc(OC)c3CC23C(=O)N(C)C(=O)N3C)cc1 (stereo not given)

IC50 [1]: 0.159 µM
Structure (SMILES): COc1ccc(C)c2c1CC1(C(=O)N(C)C(=O)N1C)C1=C2C(=O)c2[nH]cc(CCNCCc3ccccc3)c2C1=O (stereo not given)

inhibition [2]: 0%
IC50 [1]: 0.101 µM
Structure (SMILES): COc1ccc(C)c2c1CC1(C(=O)N(C)C(=O)N1C)C1=C2C(=O)c2[nH]cc(CCN(C)C)c2C1=O (stereo not given)
IC50 (MCF7): > 50 µM
IC50 (HGC-27): > 50 µM
IC50 (U-87 MG): > 50 µM
IC50 (HepG2): > 50 µM
IC50 (HCT-116): > 50 µM

IC50 [1]: > 42 µM
Structure (SMILES): COc1ccc(C)c2c1CC1(C(=O)N(C)C(=O)N1C)C1=C2C(=O)c2[nH]cc(CCNC(=O)/C=C/c3cccc(C(F)(F)F)c3)c2C1=O (stereo not given)

inhibition [2]: 0%
IC50 [1]: 0.15 µM
Structure (SMILES): COc1ccc(C)c2c1CC1(C(=O)N(C)C(=O)N1C)C1=C2C(=O)c2[nH]cc(CCNCc3cccc(Cl)c3)c2C1=O (stereo not given)
IC50 (MCF7): > 50 µM
IC50 (HGC-27): > 50 µM
IC50 (U-87 MG): > 50 µM
IC50 (HepG2): > 50 µM
IC50 (HCT-116): > 50 µM

IC50 [1]: > 42 µM
Structure (SMILES): COc1ccc(C)c2c1CC1(C(=O)N(C)C(=O)N1C)C1=C2C(=O)c2[nH]cc(CCNC(=O)c3cc4ccccc4[nH]3)c2C1=O (stereo not given)

IC50 [1]: 0.173 µM
Structure (SMILES): COc1ccc(C)c2c1CC1(C(=O)N(C)C(=O)N1C)C1=C2C(=O)c2[nH]cc(CCNCc3ccccc3)c2C1=O (stereo not given)

inhibition [2]: 0%
IC50 [1]: 0.0793 µM
Structure (SMILES): COc1ccc(C)c2c1CC1(C(=O)N(C)C(=O)N1C)C1=C2C(=O)c2[nH]cc(CCNCC(C)(C)C)c2C1=O (stereo not given)
IC50 (MCF7): > 50 µM
IC50 (HGC-27): > 50 µM
IC50 (U-87 MG): > 50 µM
IC50 (HepG2): > 50 µM
IC50 (HCT-116): > 50 µM

IC50 [1]: > 42 µM
Structure (SMILES): COc1ccc(C)c2c1CC1(C(=O)N(C)C(=O)N1C)C1=C2C(=O)c2[nH]cc(CCNC(=O)c3ccc(Cl)cc3)c2C1=O (stereo not given)

IC50 [1]: 0.954 µM
Structure (SMILES): COc1ccc(C)c2c1CC1(C(=O)N(C)C(=O)N1C)C1=C2C(=O)c2[nH]cc(CCNCc3ccc(-c4ccccc4)cc3)c2C1=O (stereo not given)

Structure (SMILES): NS(=O)(=O)NCCNc1nonc1/C(=N/O)Nc1ccc(F)c(Br)c1 [EPACADOSTAT]
IC50 (MCF7): > 50 µM
IC50 (HGC-27): > 50 µM
IC50 (U-87 MG): > 50 µM
IC50 (HepG2): > 50 µM
IC50 (HCT-116): > 50 µM

IC50 [1]: 0.221 µM
Structure (SMILES): COc1ccc(C)c2c1CC1(C(=O)N(C)C(=O)N1C)C1=C2C(=O)c2[nH]cc(CCNC(=O)c3cccs3)c2C1=O (stereo not given)

IC50 [1]: 0.271 µM
Structure (SMILES): COc1ccc(C)c2c1CC1(C(=O)N(C)C(=O)N1C)C1=C2C(=O)c2[nH]cc(CCNCc3ccc4ccccc4c3)c2C1=O (stereo not given)

IC50 [1]: > 42 µM
Structure (SMILES): COc1ccc(C)c2c1CC1(C(=O)N(C)C(=O)N1C)C1=C2C(=O)c2[nH]cc(CCNC(=O)c3cc(OC)c(OC)c(OC)c3)c2C1=O (stereo not given)

IC50 [1]: 0.161 µM
Structure (SMILES): COc1ccc(C)c2c1CC1(C(=O)N(C)C(=O)N1C)C1=C2C(=O)c2[nH]cc(CCNCc3ccc(C(F)(F)F)cc3)c2C1=O (stereo not given)

IC50 [1]: 0.234 µM
Structure (SMILES): COc1ccc(C)c2c1CC1(C(=O)N(C)C(=O)N1C)C1=C2C(=O)c2[nH]cc(CCNCc3ccc(C)c(C)c3)c2C1=O (stereo not given)

IC50 [1]: 0.43 µM
Structure (SMILES): COc1ccc(C)c2c1CC1(C(=O)N(C)C(=O)N1C)C1=C2C(=O)c2[nH]cc(CCNC(=O)c3ccccn3)c2C1=O (stereo not given)

IC50 [1]: 0.25 µM
Structure (SMILES): COc1ccc(C)c2c1CC1(C(=O)N(C)C(=O)N1C)C1=C2C(=O)c2[nH]cc(CCNC(=O)c3ccccc3Br)c2C1=O (stereo not given)

IC50 [1]: 0.181 µM
Structure (SMILES): COc1ccc(C)c2c1CC1(C(=O)N(C)C(=O)N1C)C1=C2C(=O)c2[nH]cc(CCNCc3cc(OC)c(OC)c(OC)c3)c2C1=O (stereo not given)

IC50 [1]: > 42 µM
Structure (SMILES): COc1ccc(C)c2c1CC1(C(=O)N(C)C(=O)N1C)C1=C2C(=O)c2[nH]cc(CCNC(=O)c3ccc4ccccc4n3)c2C1=O (stereo not given)

IC50 [1]: 0.265 µM
Structure (SMILES): COc1ccc(C)c2c1CC1(C(=O)N(C)C(=O)N1C)C1=C2C(=O)c2[nH]cc(CCNCc3ccc(C(C)(C)C)cc3)c2C1=O (stereo not given)

IC50 [1]: 0.37 µM
Structure (SMILES): COc1ccc(C)c2c1CC1(C(=O)N(C)C(=O)N1C)C1=C2C(=O)c2[nH]cc(CCNCc3cccs3)c2C1=O (stereo not given)

inhibition [2]: 0%
IC50 [1]: 0.0653 µM
Structure (SMILES): COc1ccc(C)c2c1CC1(C(=O)N(C)C(=O)N1C)C1=C2C(=O)c2[nH]cc(CCNCc3ccccc3Br)c2C1=O (stereo not given)
IC50 (MCF7): 1.52 µM
IC50 (HGC-27): 2.08 µM
IC50 (U-87 MG): 1.22 µM
IC50 (HepG2): 1.56 µM
IC50 (HCT-116): 1.35 µM

inhibition [2]: 0%
IC50 [1]: 0.209 µM
Structure (SMILES): COc1ccc(C)c2c1CC1(C(=O)N(C)C(=O)N1C)C1=C2C(=O)c2[nH]cc(CCNC(=O)c3ccco3)c2C1=O (stereo not given)
IC50 (MCF7): 6.91 µM
IC50 (HGC-27): 3.16 µM
IC50 (U-87 MG): 2.59 µM
IC50 (HepG2): 4.18 µM
IC50 (HCT-116): 2.15 µM

IC50 [1]: > 42 µM
Structure (SMILES): COc1ccc(C)c2c1CC1(C(=O)N(C)C(=O)N1C)C1=C2C(=O)c2[nH]cc(CCNC(=O)c3cccc(C(F)(F)F)c3)c2C1=O (stereo not given)

IC50 [1]: > 42 µM
Structure (SMILES): COc1ccc(C)c2c1CC1(C(=O)N(C)C(=O)N1C)C1=C2C(=O)c2[nH]cc(CCNC(=O)c3ccc4ccccc4c3)c2C1=O (stereo not given)

IC50 [1]: > 42 µM
Structure (SMILES): COc1ccc(C)c2c1CC1(C(=O)N(C)C(=O)N1C)C1=C2C(=O)c2[nH]cc(CCNC(=O)c3cc4ccccc4s3)c2C1=O (stereo not given)

IC50 [1]: 0.242 µM
Structure (SMILES): COc1ccc(C)c2c1CC1(C(=O)N(C)C(=O)N1C)C1=C2C(=O)c2[nH]cc(CCNCc3ccccc3C)c2C1=O (stereo not given)

IC50 [1]: 0.213 µM
Structure (SMILES): COc1ccc(C)c2c1CC1(C(=O)N(C)C(=O)N1C)C1=C2C(=O)c2[nH]cc(CCNCc3cc(F)cc(F)c3)c2C1=O (stereo not given)

IC50 [1]: 0.33 µM
Structure (SMILES): COc1ccc(CC(=O)NCCc2c[nH]c3c2C(=O)C2=C(C3=O)c3c(C)ccc(OC)c3CC23C(=O)N(C)C(=O)N3C)cc1 (stereo not given)
